We go through 16 compounds from patent US11180504B2 (ORCHID PHARMA LTD., priority 2016, dated 2021).

In test [1] the test system is methicillin-sensitive Staphylococcus aureus. Nature of the test: MIC by broth micro-dilution (CLSI), methicillin-sensitive S. aureus. Type of test: cell-based. Particulars: Staphylococcus aureus, ATCC 29213 / MSSA, MSSA S. aureus ATCC29213; read-out: MIC.
Test [2] has as its system carbapenem sensitive Escherichia coli. Put plainly: MIC by broth micro-dilution (CLSI), carbapenem sensitive E. coli. Type of test: cell-based. As to conditions: Escherichia coli, ATCC25922, ESBL −ve E. coli ATCC25922; read-out: MIC. For orientation: Dilution methods test growth across graded concentrations, often in twofold steps.
Test [3] concerns carbapenemase producing K. pneumoniae. Nature of the test: MIC by broth micro-dilution (CLSI), carbapenemase producing K. pneumoniae. Type of test: cell-based, Klebsiella pneumoniae. Particulars: Klebsiella pneumoniae, ATCCBAA1705, KPC-2 K. pneumoniae ATCC BAA-1705; read-out: MIC.
Test [4] relates to carbapenem sensitive Pseudomonas aeruginosa. Nature of the test: MIC by broth micro-dilution (CLSI), carbapenem sensitive P. aeruginosa. Type of test: cell-based. As to conditions: Pseudomonas aeruginosa, ATCC27853, Meropenem susceptible P. aeruginosa ATCC27853; read-out: MIC.

≈ marks a conversion by molar mass, not a printed value.

Broadly, the MIC is the lowest concentration found to suppress growth. As to `C[C@@H](NC(=O)Cn1cnnn1)[C@H]1C(=O)N2C(C(=O)O)=C(S[C@@H]3CN[C@H](C(=O)N4CCN(CCN5CCNCC5)CC4)C3)[C@H](C)[C@H]12` [Example 451, (4R,5S,6R)-6-((R)-1-(2-(1H-tetrazol-1-yl)acetamido)ethyl)-3-methyl-7-oxo-3-((3S,5S)-5-(4-(2-(piperazin-1-yl)ethyl)piperazine-1-carbonyl)pyrrolidin-3-ylthio)-1-azabicyclo[3.2.0]hept-2-ene-2-carboxylic acid], the MIC came out at 8 µg/mL (≈ 12.4 µM) in test [1], 0.25 µg/mL (≈ 0.387 µM) in test [2], 1 µg/mL (≈ 1.55 µM) in test [3] and 2 µg/mL (≈ 3.1 µM) in test [4].

In the case of `C[C@@H](NC(=O)Cn1cnnn1)[C@H]1C(=O)N2C(C(=O)O)=C(S[C@@H]3CN[C@H](C(=O)Nc4cccc(C(=O)N5CCNCC5)c4)C3)[C@H](C)[C@H]12` [Example 483, (4R,5S,6R)-6-((R)-1-(2-(1H-tetrazol-1-yl)acetamido)ethyl)-4-methyl-7-oxo-3-((3S,5S)-5-(3-(piperazine-1-carbonyl)phenylcarbamoyl)pyrrolidin-3-ylthio)-1-azabicyclo[3.2.0]], the MIC in test [1] was 4 µg/mL (≈ 6.13 µM); in test [2], 0.5 µg/mL (≈ 0.766 µM); in test [3], 4 µg/mL (≈ 6.13 µM); in test [4] it was 128 µg/mL (≈ 196 µM).

As for `CNCC(=O)N[C@H](C)[C@H]1C(=O)N2C(C(=O)O)=C(S[C@@H]3CN[C@H](C(=O)N4CCC(N)(Cc5ccccc5)CC4)C3)[C@H](C)[C@H]12` [Example 275], the MIC in test [1] is 64 µg/mL (≈ 107 µM); in test [2] it was 16 µg/mL (≈ 26.7 µM); in test [3], 64 µg/mL (≈ 107 µM); in test [4], above 128 µg/mL.

Take `C[C@@H](NC(=O)Cn1cnnn1)[C@H]1C(=O)N2C(C(=O)O)=C(S[C@@H]3CN[C@H](C(=O)N4CCC5(CCCCN5)CC4)C3)[C@H](C)[C@H]12` [Example 418, (4R,5S,6R)-3-((3S,5S)-5-(1,9-diazaspiro[5.5]undecane-9-carbonyl)pyrrolidin-3-ylthio)-6-((R)-1-(2-(1H-tetrazol-1-yl)acetamido)ethyl)-4-methyl-7-oxo-1-azabicyclo[3.2.0]hept-2-ene-2-carboxylic acid]: the MIC was 8 µg/mL (≈ 13.3 µM) in test [1], 1 µg/mL (≈ 1.66 µM) in test [2], 4 µg/mL (≈ 6.65 µM) in test [3] and 8 µg/mL (≈ 13.3 µM) in test [4].

For `C[C@@H]1C(S[C@@H]2CN[C@H](C(=O)N(C)C)C2)=C(C(=O)O)N2C(=O)[C@H]([C@@H](C)NC(=O)C(F)F)[C@@H]12` [Example 337, (4S,5S,6R)-6-((R) - 1-(2,2-difluoroacetamido)ethyl)-3-((3S,5S)-5-(dimethylcarbamoyl)pyrrolidin-3-ylthio)-4-methyl-7-oxo-1-azabicyclo[3.2.0]hept-2-ene-2-carboxylic acid], the MIC in test [1] was 2 µg/mL (≈ 4.34 µM); in test [2] it was 0.5 µg/mL (≈ 1.09 µM); in test [3] it was 1 µg/mL (≈ 2.17 µM); in test [4], 32 µg/mL (≈ 69.5 µM).

Take `C[C@@H](NC(=O)CN1CCNCC1)[C@H]1C(=O)N2C(C(=O)O)=C(S[C@@H]3CN[C@H](C(=O)N(C)C)C3)[C@H](C)[C@H]12` [Example 508, (4R,5S,6R)-3-((3S,5S)-5-(dimethylcarbamoyl)pyrrolidin-3-ylthio)-4-methyl-7-oxo-6-((R)-1-(2-(piperazin-1-yl)acetamido)ethyl)-1-azabicyclo[3.2.0]hept-2-ene-2-carboxylic acid]: the MIC in test [1] came out at 16 µg/mL (≈ 31.5 µM); in test [2], 2 µg/mL (≈ 3.93 µM); in test [3], 8 µg/mL (≈ 15.7 µM); in test [4], 128 µg/mL (≈ 252 µM).

As to `C[C@@H](NC(=O)Cn1nnc(C(F)(F)F)n1)[C@H]1C(=O)N2C(C(=O)O)=C(S[C@@H]3CN[C@H](C(=O)N4CC[C@@H](N)C4)C3)[C@H](C)[C@H]12` [Example 334, (4R,5S,6R)-3-((3S,5S)-5-((R)-3-aminopyrrolidine-1-carbonyl)pyrrolidin-3-ylthio)-4-methyl-7-oxo-6-((R) - 1-(2-(5-(trifluoromethyl)-2H-tetrazol-2-yl)acetamido)ethyl) - 1-azabicyclo[3.2.0]hept-2-ene-2-carboxylic acid], the MIC in test [1] was 4 µg/mL (≈ 6.65 µM); in test [2] it was 0.5 µg/mL (≈ 0.831 µM); in test [3], 32 µg/mL (≈ 53.2 µM); in test [4], 128 µg/mL (≈ 213 µM).

For the compound `C[C@@H](NC(=O)Cn1cncn1)[C@H]1C(=O)N2C(C(=O)O)=C(S[C@@H]3CN[C@H](C(=O)N4CCNCC4)C3)[C@H](C)[C@H]12` [Example 314, (4R,5S,6R)-6-((R) - 1-(2-(1H-tetrazol-1-yl)acetamido)ethyl)-4-methyl-7-oxo-3-((3S,5S)-5-(piperazine-1-carbonyl)pyrrolidin-3-ylthio) - 1-azabicyclo[3.2.0]hept-2-ene-2-], the MIC in test [1] came out at 4 µg/mL (≈ 7.51 µM); in test [2], 0.25 µg/mL (≈ 0.469 µM); in test [3] it was 2 µg/mL (≈ 3.75 µM); in test [4], 4 µg/mL (≈ 7.51 µM).

Take `C[C@@H](NC(=O)[C@@H]1CS(=O)(=O)CN1)[C@H]1C(=O)N2C(C(=O)O)=C(S[C@@H]3CN[C@H](C(=O)N4CC[C@@H](N)C4)C3)[C@H](C)[C@H]12` [Example 280]: the MIC is 64 µg/mL (≈ 112 µM) in test [1], 8 µg/mL (≈ 14 µM) in test [2], 8 µg/mL (≈ 14 µM) in test [3] and 16 µg/mL (≈ 28 µM) in test [4].

Take `C[C@@H](NC(=O)CC1CNC1)[C@H]1C(=O)N2C(C(=O)O)=C(S[C@@H]3CN[C@H](C(=O)N4CC[C@@H](N)C4)C3)[C@H](C)[C@H]12` [Example 568, (4R,5S,6R)-3-((3S,5S)-5-((R)-3-aminopyrrolidine-1-carbonyl)pyrroldin-3-ylthio)-6-((R)-1-(2-(azetidin-3-yl)acetamido)ethyl)-4-methyl-7-oxo-1-azabicyclo[3.2.0]hept-2-ene-2-carboxylic acid]: the MIC in test [1] worked out at 16 µg/mL (≈ 30.7 µM); in test [2], 1 µg/mL (≈ 1.92 µM); in test [3] it was 2 µg/mL (≈ 3.84 µM); in test [4], 4 µg/mL (≈ 7.68 µM).

For `C[C@@H](NC(=O)Cn1cnnn1)[C@H]1C(=O)N2C(C(=O)O)=C(S[C@@H]3CN[C@H](C(=O)N4C[C@@H](CO)[C@H](N)C4)C3)[C@H](C)[C@H]12` [Example 584, (4R,5S,6R)-6-((R)-1-(2-(1H-tetrazol-1-yl)acetamido)ethyl)-3-((3S,5S)-5-((3S,4R)-3-amino-4-(hydroxymethyl)pyrrolidine-1-carbonyl)pyrrolidin-3-ylthio)-4-methyl-7-oxo-1-azabicyclo[3.2.0]hept-2-ene-2-carboxylic acid], the MIC worked out at 2 µg/mL (≈ 3.55 µM) in test [1], 0.25 µg/mL (≈ 0.444 µM) in test [2], 1 µg/mL (≈ 1.77 µM) in test [3] and 1 µg/mL (≈ 1.77 µM) in test [4].

Turning to `CO[C@H]1CN(C(=O)[C@@H]2C[C@H](SC3=C(C(=O)O)N4C(=O)[C@H]([C@@H](C)NC(=O)Cn5cnnn5)[C@H]4[C@H]3C)CN2)C[C@@H]1N` [Example 494, (4R,5S,6R)-6-((R)-1-(2-(1H-tetrazol-1-yl)acetamido)ethyl)-3-((3S,5S)-5-((3S,4S)-3-amino-4-methoxypyrrolidine-1-carbonyl)pyrrolidin-3-ylthio)-4-methyl-7-oxo-1-azabicyclo[3.2.0]hept-2-ene-2-carboxylic acid], the minimal inhibitory concentration (MIC) in test [1] came to 8 µg/mL (≈ 14.2 µM); in test [2], 0.25 µg/mL (≈ 0.444 µM); in test [3], 4 µg/mL (≈ 7.1 µM); in test [4] it was 16 µg/mL (≈ 28.4 µM).

Take `C[C@@H](NC(=O)Cn1cnnn1)[C@H]1C(=O)N2C(C(=O)O)=C(S[C@@H]3CN[C@H](C(=O)N4CCN(C(=O)[C@@H](N)CO)CC4)C3)[C@H](C)[C@H]12` [Example 420, (4R,5S,6R)-6-((R)-1-(2-(1H-tetrazol-1-yl)acetamido)ethyl)-3-((3S,5S)-5-(4-((S)-2-amino-3-hydroxypropanoyl)piperazine-1-carbonyl)pyrrolidin-3-ylthio)-4-methyl-7-oxo-1-azabicyclo[3.2.0]hept-2-ene-2-carboxylic acid]: the MIC in test [1] came to 4 µg/mL (≈ 6.44 µM); in test [2], 0.25 µg/mL (≈ 0.403 µM); in test [3], 1 µg/mL (≈ 1.61 µM); in test [4] it was 2 µg/mL (≈ 3.22 µM).

Consider `C[C@@H](NC(=O)Cn1cnnn1)[C@H]1C(=O)N2C(C(=O)O)=C(S[C@@H]3CN[C@H](C(=O)N4CC[C@@H](N)[C@H]4CO)C3)[C@H](C)[C@H]12` [Example 522, (4R,5S,6R)-6-((R)-1-(2-(1H-tetrazol-1-yl)acetamido)ethyl)-3-((3S,5S)-5-((2S,3R)-3-amino-2-(hydroxymethyl)pyrrolidine-1-carbonyl)pyrrolidin-3-ylthio)-4-methyl-7-oxo-1-azabicyclo[3.2.0]hept-2-ene-2-carboxylic acid], for which the MIC came to 4 µg/mL (≈ 7.1 µM) in test [1], 0.25 µg/mL (≈ 0.444 µM) in test [2], 2 µg/mL (≈ 3.55 µM) in test [3] and 1 µg/mL (≈ 1.77 µM) in test [4].

As for `CNCC(=O)N[C@H](C)[C@H]1C(=O)N2C(C(=O)O)=C(S[C@@H]3CN[C@H](CNC(=O)[C@@H]4C[C@H](F)CN4)C3)[C@H](C)[C@H]12` [Example 282], the MIC in test [1] was 32 µg/mL (≈ 60.8 µM); in test [2], 1 µg/mL (≈ 1.9 µM); in test [3], 2 µg/mL (≈ 3.8 µM); in test [4], 32 µg/mL (≈ 60.8 µM).

Regarding `C[C@@H](NC(=O)Cn1cnnn1)[C@H]1C(=O)N2C(C(=O)O)=C(S[C@@H]3CN[C@H](C(=O)N4CCC5(CNC5)C4)C3)[C@H](C)[C@H]12` [Example 502, (4R,5S,6R)-6-((R)-1-(2-(1H-tetrazol-1-yl)acetamido)ethyl)-3-((3S,5S)-5-(2,6-diazaspiro[3.4]octane-6-carbonyl)pyrrolidin-3-ylthio)-4-methyl-7-oxo-1-azabicyclo[3.2.0]hept-2-ene-2-carboxylic acid], the MIC was determined as 4 µg/mL (≈ 7.15 µM) in test [1], 0.25 µg/mL (≈ 0.447 µM) in test [2], 1 µg/mL (≈ 1.79 µM) in test [3] and 2 µg/mL (≈ 3.57 µM) in test [4].
